# According to ChEMBL document CHEMBL5154933, “Development of Lipo-γ-AA Peptides as Potent Antifungal Agents” (J Med Chem, 2022):
# Tests used:
# Cryptococcus neoformans [1] = experiment: Antifungal activity against Cryptococcus neoformans H99 assessed as fungal growth inhibition by broth microdilution assay; assay type: functional
# Cryptococcus neoformans [2] = experiment: Antifungal activity against Cryptococcus neoformans 5-FC assessed as fungal growth inhibition by broth microdilution assay; assay type: functional
# [3] = test system: Cryptococcus deuterogattii; experiment: Antifungal activity against Cryptococcus gattii VGII R265 assessed as fungal growth inhibition by broth microdilution assay; assay type: functional, Cryptococcus gattii species complex
# Candida albicans [4] = experiment: Antifungal activity against Candida albicans SC5314 assessed as fungal growth inhibition by broth microdilution assay; assay type: functional
# Candida albicans [5] = experiment: Antifungal activity against Candida albicans CARG5 assessed as fungal growth inhibition by broth microdilution assay; assay type: functional
# Candida albicans [6] = experiment: Antifungal activity against Candida albicans CA17 assessed as fungal growth inhibition by broth microdilution assay; assay type: functional
# Candida albicans [7] = experiment: Antifungal activity against Candida albicans 28A assessed as fungal growth inhibition by broth microdilution assay; assay type: functional
# Candida parapsilosis = experiment: Antifungal activity against Candida parapsilosis ATCC 22019 assessed as fungal growth inhibition by broth microdilution assay; assay type: functional; details: Lodderomyces parapsilosis
# Pichia kudriavzevii = experiment: Antifungal activity against Candida krusei ATCC6258 assessed as fungal growth inhibition by broth microdilution assay; assay type: functional
# Mucor racemosus [8] = experiment: Antifungal activity against Mucor racemosus MZ140 assessed as fungal growth inhibition by broth microdilution assay; assay type: functional
# Mucor racemosus [9] = experiment: Antifungal activity against Mucor racemosus R715 assessed as fungal growth inhibition by broth microdilution assay; assay type: functional
# Aspergillus fumigatus [10] = experiment: Antifungal activity against Aspergillus fumigatus AF293 assessed as fungal growth inhibition by broth microdilution assay; assay type: functional
# Aspergillus fumigatus [11] = experiment: Antifungal activity against Aspergillus fumigatus shjt40 assessed as fungal growth inhibition by broth microdilution assay; assay type: functional
# [12] = Hemolytic activity in human RBC incubated for 1 hr by microplate reader method; assay type: toxicity, cell-based, Erythrocyte; details: red blood cells (erythrocytes)
# [13] = Selectivity ratio of HC50 for hemolytic activity in human RBC to MIC for antifungal activity against Cryptococcus neoformans H99; assay type: toxicity; details: red blood cells (erythrocytes)
# [14] = Selectivity ratio of HC50 for hemolytic activity in human RBC to MIC for antifungal activity against Cryptococcus neoformans 5-FC; assay type: toxicity; details: red blood cells (erythrocytes)
# [15] = Selectivity ratio of HC50 for hemolytic activity in human RBC to MIC for antifungal activity against Cryptococcus gattii R265; assay type: toxicity; details: red blood cells (erythrocytes)
# [16] = Selectivity ratio of HC50 for hemolytic activity in human RBC to MIC for antifungal activity against Candida albicans SC5314; assay type: toxicity; details: red blood cells (erythrocytes)
# [17] = Selectivity ratio of HC50 for hemolytic activity in human RBC to MIC for antifungal activity against Candida albicans CARG5; assay type: toxicity; details: red blood cells (erythrocytes)
# [18] = Selectivity ratio of HC50 for hemolytic activity in human RBC to MIC for antifungal activity against Candida albicans CA17; assay type: toxicity; details: red blood cells (erythrocytes)
# [19] = Selectivity ratio of HC50 for hemolytic activity in human RBC to MIC for antifungal activity against Candida albicans 28A; assay type: toxicity; details: red blood cells (erythrocytes)
# [20] = Selectivity ratio of HC50 for hemolytic activity in human RBC to MIC for antifungal activity against Candida parapsilosis ATCC 22019; assay type: toxicity; details: red blood cells (erythrocytes)
# [21] = Selectivity ratio of HC50 for hemolytic activity in human RBC to MIC for antifungal activity against Candida krusei ATCC6258; assay type: toxicity; details: red blood cells (erythrocytes)
# [22] = Selectivity ratio of HC50 for hemolytic activity in human RBC to MIC for antifungal activity against Mucor racemosus MZ140; assay type: toxicity; details: red blood cells (erythrocytes)
# [23] = Selectivity ratio of HC50 for hemolytic activity in human RBC to MIC for antifungal activity against Mucor racemosus R715; assay type: toxicity; details: red blood cells (erythrocytes)
# [24] = Selectivity ratio of HC50 for hemolytic activity in human RBC to MIC for antifungal activity against Aspergillus fumigatus AF293; assay type: toxicity; details: red blood cells (erythrocytes)
# [25] = Selectivity ratio of HC50 for hemolytic activity in human RBC to MIC for antifungal activity against Aspergillus fumigatus shjt40; assay type: toxicity; details: red blood cells (erythrocytes)
MIC50 (Cryptococcus neoformans [1]),MIC50 (Cryptococcus neoformans [2]),MIC50 [3],MIC50 (Candida albicans [4]),MIC50 (Candida albicans [5]),MIC50 (Candida albicans [6]),MIC50 (Candida albicans [7]),MIC50 (Candida parapsilosis),MIC50 (Pichia kudriavzevii),Compound,HC50 at 1 h [12],selectivity ratio [13],selectivity ratio [14],selectivity ratio [15],selectivity ratio [16],selectivity ratio [17],selectivity ratio [18],selectivity ratio [19],selectivity ratio [20],selectivity ratio [21],other results
2 µg/mL,2 µg/mL,2 µg/mL,2 µg/mL,2 µg/mL,4 µg/mL,2 µg/mL,2 µg/mL,4 µg/mL,CCCCCCCCCCCCCCCCCC(=O)N[C@@H](CCCCN)C(=O)N[C@@H](Cc1ccccc1)CN(CC(N)=O)C(=O)CCN,> 250 µg/mL,≤ 125,≤ 125,≤ 125,≤ 125,≤ 125,≤ 125,≤ 125,≤ 125,≤ 125,MIC50 (Mucor racemosus [8]): 16 µg/mL; MIC50 (Mucor racemosus [9]): 16 µg/mL; MIC50 (Aspergillus fumigatus [10]): 8 µg/mL; MIC50 (Aspergillus fumigatus [11]): 8 µg/mL; selectivity ratio [22]: ≤ 125; selectivity ratio [23]: ≤ 125; selectivity ratio [24]: ≤ 125; selectivity ratio [25]: ≤ 125
4 µg/mL,4 µg/mL,4 µg/mL,4 µg/mL,4 µg/mL,4 µg/mL,4 µg/mL,2 µg/mL,2 µg/mL,CCCCCCCCCCCCCCCC(=O)N[C@@H](CCCCN)C(=O)N[C@@H](Cc1ccccc1)CN(CC(N)=O)C(=O)CCN,> 250 µg/mL,≤ 125,≤ 125,≤ 125,≤ 125,≤ 125,≤ 125,≤ 125,≤ 125,≤ 125,
8 µg/mL,8 µg/mL,8 µg/mL,4 µg/mL,8 µg/mL,8 µg/mL,8 µg/mL,4 µg/mL,4 µg/mL,CCCCCCCCCCCCCCCC(=O)N[C@@H](CCCCN)C(=O)N[C@@H](Cc1ccccc1)CN(CC(N)=O)C(=O)CN,> 250 µg/mL,≤ 125,≤ 125,≤ 125,≤ 125,≤ 125,≤ 125,≤ 125,≤ 125,≤ 125,
4 µg/mL,4 µg/mL,4 µg/mL,4 µg/mL,4 µg/mL,4 µg/mL,4 µg/mL,4 µg/mL,4 µg/mL,CCCCCCCC/C=C\CCCCCCCC(=O)N[C@@H](CCCCN)C(=O)N[C@@H](Cc1ccccc1)CN(CC(N)=O)C(=O)CCN,> 250 µg/mL,≤ 125,≤ 125,≤ 125,≤ 125,≤ 125,≤ 125,≤ 125,≤ 125,≤ 125,
